Experimental data published in ChEMBL document CHEMBL4680321, “Novel indolylarylsulfone derivatives as covalent HIV-1 reverse transcriptase inhibitors specifically targeting the drug-resistant mutant Y181C” (Bioorg Med Chem, 2021).
Calls of active or inactive are those of the source. No cut-off for these calls is given here.

Columns and labels:
[1] = tested on: Human immunodeficiency virus 1; test: Antiviral activity against HIV-3B infected in human MT-4 cells assessed as reduction in virus-induced cytopathic effect incubated for 5 days by MTT assay; type: functional, organism-based; conditions: Human immunodeficiency virus 1, 3B, MT4, 120 h
[2] = Cytotoxicity against human MT4 cells assessed as reduction in cell viability incubated for 5 days by MTT assay; type: cell-based; conditions: time 5 day
[3] = tested on: Human immunodeficiency virus 2; test: Antiviral activity against HIV2 ROD infected in human MT-4 cells assessed as reduction in virus-induced cytopathic effect incubated for 5 days by MTT assay; type: functional, organism-based; conditions: MT4, time 5.0 day
[4] = molecular target: Human immunodeficiency virus type 1 reverse transcriptase (Human immunodeficiency virus 1, UniProt Q72547); test: Inhibition of recombinant HIV-1 BH10 reverse transcriptase using D38/[32P]25PGA as template-primer incubated for 5 mins in presence of DTT followed by dTTP addition and measured after 15 to 30 sec by nucleotide incorporation assay; set-up: species or system Human immunodeficiency virus type 1 BH10
[5] = Stability of compound in PBS buffer at pH 2 at 2.5 mM incubated for 24 hrs by reverse phase HPLC analysis; type: physicochemical; conditions: pH 2, 24 h, 2500 µM
[6] = Stability of compound in PBS buffer at pH 7.4 at 2.5 mM incubated for 24 hrs by reverse phase HPLC analysis; type: physicochemical; conditions: pH 7.4, 24 h, 2500 µM
[7] = tested on: Human immunodeficiency virus 1; test: Antiviral activity against HIV-3B harboring reverse transcriptase Y181C mutant infected in human MT-4 cells assessed as reduction in virus-induced cytopathic effect incubated for 5 days by MTT assay; type: functional, organism-based; conditions: Human immunodeficiency virus 1, 3B, MT4, 120 h
[8] = Selectivity index, ratio of EC50 for HIV-3B infected in human MT-4 cells to EC50 for HIV-3B harboring reverse transcriptase Y181C mutant infected in human MT-4 cells; type: functional, Human immunodeficiency virus 1

SMILES | EC50 [1] | CC50 at 120 h [2] | Activity [3] | IC50 [4] | Stabilty [5] | Stabilty [6] | EC50 [7] | Ratio EC50 [8]
C=CS(=O)(=O)N1CC[C@H](NS(=O)(=O)c2c(C(N)=O)[nH]c3ccc(Br)cc23)C1 | 9.74 µM | 16 µM | inactive | > 100 µM | Stable | Stable | 22 µM | 9.3
Cc1cc(C#N)cc(C)c1Oc1nc(Nc2ccc(C#N)cc2)nc(N)c1Br [ETRAVIRINE] | 0.01 µM |  |  |  |  |  |  | 
C=CC(=O)N1CC[C@@H](NS(=O)(=O)c2c(C(N)=O)[nH]c3ccc(Br)cc23)C1 | > 51.8 µM | 51.8 µM | inactive |  |  |  |  | 
C=CS(=O)(=O)N[C@@H]1CCN(S(=O)(=O)c2c(C(N)=O)[nH]c3ccc(Br)cc23)C1 | > 2.1 µM | 2.1 µM | inactive |  |  |  |  | 
C=CC(=O)N[C@@H]1CCN(S(=O)(=O)c2c(C(N)=O)[nH]c3ccc(Br)cc23)C1 | > 178 µM | 178 µM | inactive |  |  |  |  | 
C=CC(=O)N1CC[C@H](NS(=O)(=O)c2c(C(N)=O)[nH]c3ccc(Br)cc23)C1 | > 155 µM | 155 µM | inactive |  |  |  |  | 
NC(=O)c1[nH]c2ccc(Br)cc2c1S(=O)(=O)N1CCCC1 | 3.6 µM | 35.3 µM | inactive | 0.48 µM |  |  |  | 
O=C1Nc2ccc(Cl)cc2[C@@](C#CC2CC2)(C(F)(F)F)O1 [EFAVIRENZ] |  | > 6.3 µM | inactive |  |  |  |  | 
Cc1cc(/C=C/C#N)cc(C)c1Nc1ccnc(Nc2ccc(C#N)cc2)n1 [RILPIVIRINE] | 0.01 µM |  |  |  |  |  |  | 
C=CC(=O)N1CCC[C@@H](NS(=O)(=O)c2c(C(N)=O)[nH]c3ccc(Br)cc23)C1 | > 43.6 µM | 43.6 µM | inactive |  |  |  |  | 
C=CC(=O)NC1CCN(S(=O)(=O)c2c(C(N)=O)[nH]c3ccc(Br)cc23)CC1 | 125 µM | > 274 µM | inactive |  |  |  |  | 
C=CS(=O)(=O)NC1CCN(S(=O)(=O)c2c(C(N)=O)[nH]c3ccc(Br)cc23)CC1 | > 6.5 µM | 6.5 µM | inactive |  |  |  |  | 
C=CS(=O)(=O)N1CCC[C@@H](NS(=O)(=O)c2c(C(N)=O)[nH]c3ccc(Br)cc23)C1 | > 29 µM | 29 µM | inactive | > 100 µM |  |  | 40.7 µM | 7.7
